Data reported in patent US20240384250A1, “FIBROBLAST GROWTH FACTOR 23 MODULATING COMPOUNDS” (THE UAB RESEARCH FOUNDATION, priority 2021, published 2024).

Assays:
FGF23 = biological target: T1, FGF23 (Homo sapiens, UniProt Q9GZV9, R179Q); test: Surface plasmon resonance, heparin immobilized on chip; assay type: binding; details: SPR
T1 construct: purchased R&D Systems 2604FG025/CF
T1 sequence (Q9GZV9 25-251 R179Q): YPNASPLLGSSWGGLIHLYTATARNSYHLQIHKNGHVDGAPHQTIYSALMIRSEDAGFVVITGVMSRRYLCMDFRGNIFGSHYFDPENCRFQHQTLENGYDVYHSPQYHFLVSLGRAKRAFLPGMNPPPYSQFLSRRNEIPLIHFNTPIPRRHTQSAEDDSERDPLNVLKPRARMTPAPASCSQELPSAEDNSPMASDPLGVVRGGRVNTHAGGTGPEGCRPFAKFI
Method: (§1) For the direct quantitative analysis of label-free molecular interactions in real time, surface plasmon resonance studies were conducted using BIAcore T200 and T200 evaluation software (28975001, Cytiva). Sensor SA (BR100398) and CMS chips (BR100399) were from Cytiva. For the preparation of heparin chips, heparin (2 mg) and amine-PEG3-Biotin (2 mg, 21347, Pierce) were dissolved in 200 μl of H2O and 10 mg of NaCNBH3 was added. The reaction mixture was heated at 70° C. for 24 hours; an additional 10 mg of NaCNBH3 was added; and the reaction was heated at 70° C. for another 24 hours. After cooling to room temperature, the mixture was desalted with the spin column (3000 MWCO). Biotinylated heparin was collected, freeze dried, and used for chip preparation. Biotinylated heparin was immobilized to streptavidin chips according to the manufacturer's protocol. In brief, 20 μl of biotinylated heparin solution (0.1 mg/ml) in HBS-P running buffer (0.01 M N-2-hydroxyethylpiperazine-N′-2-ethanesulfonic acid, 0.15 M NaCl, 0.005% surfactant P20 [pH7.4]; BR100368, Cytiva) was injected over flow cell 2 of the streptavidin chip at a flow rate of 10 μl/min. The successful immobilization of heparin was confirmed by the observation of an approximately 200-resonance unit increase in the sensor chip. The control flow cell (flow cell 1) was prepared by 1-minute injection with saturated biotin. For the preparation of FGFR4 chips, Fc-FGFR4 protein (human ectodomain) was immobilized on research grade CMS chips according to the standard amine coupling protocol. Briefly, carboxymethyl groups on the CMS chip surface were first activated using an injection pulse of […] of an equimolar mix of N-ethyl-N-(dimethylaminopropyl) carbodiimide and N-hydroxysuccinimide (final concentration 0.05 M, mixed immediately before injection). After activation, FGFR4 was diluted to […] in 100 mM sodium acetate (pH 5.5) buffer and injected over the activated biosensor surface. Excess unreacted sites on the sensor surface were deactivated with a 35 μl injection of 1 M ethanolamine. A reference flow cell was prepared using an injection pulse of […] of an equimolar mix of N-ethyl-N-(dimethylaminopropyl) carbodiimide and N-hydroxysuccinimide (final concentration 0.05 M, mixed immediately before injection) followed by a 35 μl injection of 1 M ethanolamine. For the measurement of interactions between FGF23 (human protein), FGFR4 (human ectodomain protein), klotho (human ectodomain, self-made; see above), and heparin, samples were diluted in HBS-P buffer. Different dilutions of protein were injected at a flow rate of 30 μl/min with HBS-P buffer as running buffer. At the end of the sample injection, HBS-P buffer was flowed over the sensor surface to facilitate dissociation. After a 3-minute dissociation time, the sensor surface was regenerated by injecting with 30 μl of 2 M NaCl to get a fully regenerated surface. The response was monitored as a function of time (sensorgram) at 25° C.

klotho = biological target: T2, klotho (Homo sapiens, UniProt Q9UEF7); test: as above; assay type: binding; details: SPR
T2 construct: The sKL recombinant protein produced is mouse aa 35-982 and human aa 34-981; made in house; host or cells: Expi293 (HEK293) cells, stably transfected
T2 sequence (Q9UEF7 34-981): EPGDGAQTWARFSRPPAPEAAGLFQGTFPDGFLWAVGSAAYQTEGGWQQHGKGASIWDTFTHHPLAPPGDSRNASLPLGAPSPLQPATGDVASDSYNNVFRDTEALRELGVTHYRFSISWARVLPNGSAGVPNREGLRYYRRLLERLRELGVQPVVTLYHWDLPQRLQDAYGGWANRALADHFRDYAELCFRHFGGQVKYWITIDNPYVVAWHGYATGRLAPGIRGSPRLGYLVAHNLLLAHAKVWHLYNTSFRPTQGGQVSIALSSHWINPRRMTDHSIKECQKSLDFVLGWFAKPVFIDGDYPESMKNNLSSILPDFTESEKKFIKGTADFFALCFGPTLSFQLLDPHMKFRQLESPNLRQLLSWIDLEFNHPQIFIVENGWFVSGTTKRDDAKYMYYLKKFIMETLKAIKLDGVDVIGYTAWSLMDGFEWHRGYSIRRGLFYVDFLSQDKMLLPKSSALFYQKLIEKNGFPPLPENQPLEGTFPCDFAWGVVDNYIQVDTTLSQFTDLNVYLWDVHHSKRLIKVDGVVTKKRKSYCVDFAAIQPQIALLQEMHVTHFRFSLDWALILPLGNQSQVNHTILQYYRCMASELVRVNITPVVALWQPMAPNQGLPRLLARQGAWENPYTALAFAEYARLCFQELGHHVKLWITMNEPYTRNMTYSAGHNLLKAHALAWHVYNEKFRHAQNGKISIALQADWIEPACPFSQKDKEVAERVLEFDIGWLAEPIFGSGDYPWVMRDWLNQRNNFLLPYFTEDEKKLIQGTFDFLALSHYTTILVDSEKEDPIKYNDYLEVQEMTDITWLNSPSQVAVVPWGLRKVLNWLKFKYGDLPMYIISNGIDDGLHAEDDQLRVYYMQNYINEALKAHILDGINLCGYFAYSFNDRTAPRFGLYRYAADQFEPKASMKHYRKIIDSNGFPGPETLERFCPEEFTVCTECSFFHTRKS
Method: as §1

Kd (FGF23): 7.6 nM
ka (FGF23; 25° C.): 4.8 × 10^5 1/MS
kd (FGF23; 25° C.): 3.6 × 10^−3 1/S
Kd (klotho): 15 nM
ka (klotho; 25° C.): 8.0 × 10^4 1/MS
kd (klotho; 25° C.): 1.1 × 10^−3 1/S
Substance: heparin [reference compound]
